Measurements: patent US7807630B2, “Targeting of Notch3 receptor function for cancer therapy” (Vanderbilt University, priority 2007, dated 2010)
Entries after “also recorded” stand apart in the source; their conditions may differ. Where no end group is shown, it is not given here.

Legend:
HCC2429 cells [1] = experiment: Sensitivity to the EGFR tyrosine kinase inhibitor AG1478 with and without Notch3 inhibition (DN construct); format: cell-based, human
Excerpt: (§1) FIGS. 11A-B. Notch3 modulates the EGF pathway and increases sensitivity to an EGFr inhibitor. (FIG. 11A) In HCC2429, inhibition of the Notch3 pathway increases sensitivity to AG1478 nearly 40-fold. […] (FIG. 11B) A similar observation is made in H460 when the inventors combine AG1478 with L-685,458, a γ-secretase inhibitor, further supporting the hypothesis that EGF cooperates with the Notch pathway in oncogenesis.
(§2) EGFr Inhibitors Enhance the Anti-proliferation Effect of Notch3 Inhibition. […] Based on existing literature and their observations, the inventors hypothesized that Notch3 acts synergistically with the EGFR pathway in the promotion and the survival of lung cancer cells and that combining inhibitors of both pathways will have synergistic therapeutic value. To test this hypothesis, the inventors examined whether inhibiting the Notch3 pathway increases tumor inhibition when lung cancer cells are treated with an EGFR tyrosine kinase inhibitor, AG1478. […] Synergism can also be observed when the γ-secretase inhibitor L-685,458 is added to AG1478 (FIG. 11B). […] From a therapeutic standpoint, Notch3 is a good target for therapeutic intervention both alone and in combination with growth factor receptor inhibitors.

H460 = experiment: Sensitivity to AG1478 with and without Notch3 inhibition (DN construct or γ-secretase inhibitor); format: cell-based, human
Excerpt: as §1, §2

HCC2429 xenografts = experiment: MRK003 treatment of subcutaneous HCC2429 xenografts; format: in vivo, mice
Procedure: (FIG. 8A) Xenografts injected with HCC2429 were treated with MRK003 once the tumors became palpable. After 2 weeks of treatment, the inventors observed about a 50% reduction in tumor size. […] Histological examination of resected tumors from xenografts at the end of treatment.
To assess the effect of pharmacologically inhibiting Notch activation in vivo, the inventors treated subcutaneous xenografts with MRK003, a γ-secretase inhibitor from Merck, Inc. & Co. Based on the manufacturer's recommended dose, the mice were treated with 100 mg/kg orally for 3 consecutives days per week once the tumors were palpable. At the end of a 2-week treatment, the animals were then euthanized, and the tumors were harvested.

HCC2429 cells [2] = experiment: Cell survival with MRK003 in HCC2429 clones expressing Notch3 siRNA; format: cell-based, human; settings: HCC2429 clones with loss of Notch3 (siRNA-N3)
Procedure: HCC2429 cells are sensitive to GSI, and the sensitivity increases in low serum, similarly to that observed with clones expressing the DN construct. Tumor cells treated with DMSO alone had no change in cell viability. (FIG. 7B) Inhibition of S3 proteolytic processing results in the decrease of Notch3 intracellular domain (N3ICD) and accumulation of S2 product (N3ΔE) after 3 hours. (FIG. 7C) In this experiment, HCC2429 was stably transfected with plasmid vector expressing Notch3 siRNA.
A γ-Secretase Inhibitor Reduces Proliferation in Lung Cancer Cells. Proteolytic processing of Notch receptors is required for activation. As previously described, three proteolytic cleavage sites are involved in enabling Notch signaling. In the final step, the membrane-associated Notch fragment is cleaved within its transmembrane domain by a γ-secretase-containing protein complex. Mammalian presenilins (PS-1 and PS-2) are polytopic transmembrane proteins that appear to function as aspartyl proteases within a multiprotein, γ-secretase complex (Wolfe and Kopan, 2004). Presenilins provide the active site of the proteolytic activity. This last cleavage releases the Notch intracellular domain, initiating CBF-1-mediated signaling. […]

[3] = test system: HCC2429 lung cancer cell line; experiment: Soft-agar colony assay, MRK003 with AG1478; format: cell-based, human
Excerpt: FIGS. 12A-B. In HCC2429 lung cancer cell line, Notch inhibitor MRK003 enhances the effect of EGFR inhibitor AG1478 on colony formation in soft agar. […] (FIG. 12B) Graph depicts the quantitative decrease in colony formation.
as §2

[4] = Peptide screen for apoptosis by Annexin V staining using an FMAT system; format: cell-based; settings: FMAT screen of 155 peptides, quadruplicate
Procedure: FIG. 13. […] Each of 155 different peptides were assayed in quadruplicate, and only those peptides that produced a significant increase of fluorescence signal in all 4 wells were considered potentially positive or capable of inducing apoptosis. The bar graphs here reflect fluorescence counts. Sequences N102: CATAV, N103: CFHGAT, N105: CVSNP, N132: CLNGGS.
(§3) Each of 155 different peptides were assayed in quadruplicate, and only those peptides that produced a significant increase of fluorescence signal in all 4 wells were considered potentially positive or capable of inducing apoptosis. The bar graphs here reflect fluorescence counts. […] The peptides were then immunoprecipitated from cell lysate with streptavidin beads and immunoblotted with anti-HA antibody.

HCC2429 = experiment: Apoptosis by annexin V labelling and flow cytometry after Notch3 peptide treatment; format: cell-based, human; settings: HCC2429, compared to control
Procedure: (FIG. 14A) HCC2429 was treated with Notch3 peptides N16, N17, N102, N103, N132. […] MRK003-treated cell is used as positive control. After treatment, cells were labeled with annexin V and detected using flow cytometry. […] MRK003-treated cells were used as positive control. Sequences N16: CFNTLGGHS, N17: CVCVNGWTGES, N102: CATAV, N103: CFHGAT, N132: CLNGGS. […]

[5] = test system: Notch3-dependent gene Hey1; experiment: Hey1 transcription by real-time RT-PCR after peptide treatment; format: cell-based, human
Jagged1 = target: T1, Jagged1 (Homo sapiens, UniProt P78504); experiment: Streptavidin pull-down of peptides from Jagged1-HA transfected HEK cells, anti-HA immunoblot; format: binding; settings: HEK cells transfected with Jagged1-HA, anti-HA blot
T1 construct: expressed in transfected cells; host or cells: HEK cells
Procedure: FIG. 15. […] HEK cells were transfected with Jagged1-HA and treated with Notch3 peptides. The peptides were then immunoprecipitated from cell lysate with streptavidin beads and immunoblotted with anti-HA antibody. No: no input; C: control peptide. Sequences N16: CFNTLGGHS, N17: CVCVNGWTGES, N102: CATAV, N103: CFHGAT, N132: CLNGGS.
as §3

[6] = Apoptosis (percentage of annexin V positive cells) after Fc-fusion protein treatment; format: cell-based; settings: 40 hrs treatment, compared to control and Fc control
Procedure: […] […] Apoptosis was determined by percentage of annexin V positive cells. Sequences N16: CFNTLGGHS, N17: CVCVNGWTGES, N132: CLNGGS.

T1 sequence (P78504 34-1218, species assumed): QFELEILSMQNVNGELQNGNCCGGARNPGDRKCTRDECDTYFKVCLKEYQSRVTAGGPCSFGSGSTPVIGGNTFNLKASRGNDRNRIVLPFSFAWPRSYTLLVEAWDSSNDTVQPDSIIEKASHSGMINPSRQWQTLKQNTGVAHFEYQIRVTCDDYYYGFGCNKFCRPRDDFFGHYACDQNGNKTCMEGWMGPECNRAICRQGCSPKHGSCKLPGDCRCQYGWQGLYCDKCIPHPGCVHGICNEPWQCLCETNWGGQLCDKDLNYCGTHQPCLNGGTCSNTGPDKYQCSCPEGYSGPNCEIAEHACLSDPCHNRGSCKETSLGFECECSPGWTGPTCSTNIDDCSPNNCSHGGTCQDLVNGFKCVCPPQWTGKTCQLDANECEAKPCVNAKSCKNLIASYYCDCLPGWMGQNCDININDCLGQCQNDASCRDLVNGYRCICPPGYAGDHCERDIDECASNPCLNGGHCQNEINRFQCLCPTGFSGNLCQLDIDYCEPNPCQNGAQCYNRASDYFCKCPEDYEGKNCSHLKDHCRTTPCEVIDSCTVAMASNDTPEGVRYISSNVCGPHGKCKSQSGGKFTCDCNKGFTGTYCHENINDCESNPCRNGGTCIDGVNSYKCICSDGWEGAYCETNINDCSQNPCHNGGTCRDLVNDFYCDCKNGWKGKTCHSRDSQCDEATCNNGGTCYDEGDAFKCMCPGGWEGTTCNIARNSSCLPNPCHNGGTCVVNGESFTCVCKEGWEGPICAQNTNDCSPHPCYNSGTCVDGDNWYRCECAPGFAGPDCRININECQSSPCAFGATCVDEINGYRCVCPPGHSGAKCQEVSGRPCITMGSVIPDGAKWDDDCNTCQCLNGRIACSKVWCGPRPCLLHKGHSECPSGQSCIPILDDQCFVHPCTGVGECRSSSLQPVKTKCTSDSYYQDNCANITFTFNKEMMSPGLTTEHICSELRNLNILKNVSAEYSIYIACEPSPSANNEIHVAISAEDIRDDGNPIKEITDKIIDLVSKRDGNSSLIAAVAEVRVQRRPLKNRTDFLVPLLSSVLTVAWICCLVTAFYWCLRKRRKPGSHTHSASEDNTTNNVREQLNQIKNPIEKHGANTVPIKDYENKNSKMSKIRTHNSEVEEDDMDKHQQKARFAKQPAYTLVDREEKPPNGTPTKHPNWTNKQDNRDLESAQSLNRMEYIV

Molecule | binding to ligand Jagged1 (Jagged1) | apoptosis by Annexin V staining (fluorescence counts) [4] | apoptosis (annexin V, flow cytometry) (HCC2429) | transcription of Notch3-dependent gene Hey1 [5] | other results
COc1cc2ncnc(Nc3cccc(Cl)c3)c2cc1OC [AG1478] |  |  |  |  | increase in sensitivity to AG1478 upon inhibition of the Notch3 pathway (HCC2429 cells [1]; HCC2429, DN construct versus control): 40 fold; IC50 (HCC2429 cells [1]; HCC2429, EGF-supplemented media, without Notch3 inhibition): 8.3 µM; IC50 (HCC2429 cells [1]; HCC2429 clones transfected with the DN (dominant-negative Notch3) construct, EGF-supplemented media): 0.2 µM; IC50 (H460; H460, without Notch3 inhibition): 23.8 µM; reduction of cancer cell survival upon inhibition of the Notch3 pathway (H460; H460 treated with AG1478): approximately two-fold; IC50 (H460; H460 with inhibition of the Notch3 pathway): 12.1 µM
CC(C)C[C@H](NC(=O)[C@H](Cc1ccccc1)C[C@@H](O)[C@H](Cc1ccccc1)NC(=O)OC(C)(C)C)C(=O)N[C@@H](Cc1ccccc1)C(N)=O [L-685,458] |  |  |  |  | combined effect of L-685,458 added to AG1478 (H460; H460 (FIG. 11B)): Synergism
O=S1(=O)N[C@@]2(CN1CC(F)(F)F)[C@@H]1CC[C@H]2Cc2ccc(/C=C/CN3CCC(C(F)(F)F)CC3)cc2C1 [MRK003] |  |  |  |  | tumor size (HCC2429 xenografts; 100 mg/kg orally, 3 consecutive days per week, end of 2-week treatment): reduction of tumor size; reduction in tumor size (HCC2429 xenografts; HCC2429 xenografts, 100 mg/kg orally, 3 consecutive days per week, after 2 weeks of treatment): ~50%; histological examination of resected tumors (HCC2429 xenografts; end of treatment, compared to control): Marked necrosis; activated Notch3 (N3ICD) in tumor (HCC2429 xenografts; xenograft tumors treated with MRK003): reduction in activated Notch3 (N3ICD); also recorded: Loss of activated Notch3 (N3ICD); cell survival when treated with MRK003 (HCC2429 cells [2]): no loss in cell survival; colony formation in soft agar ([3]; HCC2429, MRK003 alone): decreases colony formation; colony formation in soft agar, combination with EGFR inhibitor AG1478 ([3]; HCC2429, MRK003 combined with AG1478): additive effects; also recorded: enhances the effect of AG1478 on growth
CVSNP [N105, Notch3 peptide] |  | induce apoptosis |  |  | 
N16-17-Fc: Purified recombinant Fc-fusion Notch3 protein with N16-17 sequences (CFNTLGGHSCVCVNGWTGES; cysteine pairing not given here; also: Fc fusion (dimerising Fc left off)) |  |  |  |  | apoptosis (percentage of annexin V positive cells) [6]: induces apoptosis

The next lines start with results.

binding to ligand Jagged1 (Jagged1) | Molecule | apoptosis by Annexin V staining (fluorescence counts) [4] | apoptosis (annexin V, flow cytometry) (HCC2429) | transcription of Notch3-dependent gene Hey1 [5] | other results
binding to ligand Jagged1 | CATAV [N102, Notch3 peptide] | induce apoptosis | Induction of apoptosis | reduced transcription of Notch3-dependent gene Hey1 | 
binding to ligand Jagged1 | CFHGAT [N103, Notch3 peptide] | induce apoptosis | Induction of apoptosis | reduced transcription of Notch3-dependent gene Hey1 | 
binding to ligand Jagged1 | CFNTLGGHS [N16, Notch3 peptide] |  | Induction of apoptosis | reduced transcription of Notch3-dependent gene Hey1 | 
binding to ligand Jagged1 | CLNGGS [N132, Notch3 peptide] | induce apoptosis | Induction of apoptosis | reduced transcription of Notch3-dependent gene Hey1 | 
binding to ligand Jagged1 | CVCVNGWTGES [N17, Notch3 peptide] |  | Induction of apoptosis; also recorded: highest apoptotic activity | reduced transcription of Notch3-dependent gene Hey1; also recorded: best reduction in Hey1 transcription | 
